ChEMBL document CHEMBL4715871, “4-Acyl Pyrroles as Dual BET-BRD7/9 Bromodomain Inhibitors Address BETi Insensitive Human Cancer Cell Lines” (J Med Chem, 2020)
The source made the active and inactive calls. The rule behind the calls is not given here.

Experiments:
[1] = molecular target: T1, Bromodomain-containing protein 9 (Homo sapiens, UniProt Q9H8M2); experiment: Binding affinity to human partial length BRD9 (R130 to V259 residues) by bromoKdELECT Discover assay
T1 sequence (Q9H8M2 whole entry): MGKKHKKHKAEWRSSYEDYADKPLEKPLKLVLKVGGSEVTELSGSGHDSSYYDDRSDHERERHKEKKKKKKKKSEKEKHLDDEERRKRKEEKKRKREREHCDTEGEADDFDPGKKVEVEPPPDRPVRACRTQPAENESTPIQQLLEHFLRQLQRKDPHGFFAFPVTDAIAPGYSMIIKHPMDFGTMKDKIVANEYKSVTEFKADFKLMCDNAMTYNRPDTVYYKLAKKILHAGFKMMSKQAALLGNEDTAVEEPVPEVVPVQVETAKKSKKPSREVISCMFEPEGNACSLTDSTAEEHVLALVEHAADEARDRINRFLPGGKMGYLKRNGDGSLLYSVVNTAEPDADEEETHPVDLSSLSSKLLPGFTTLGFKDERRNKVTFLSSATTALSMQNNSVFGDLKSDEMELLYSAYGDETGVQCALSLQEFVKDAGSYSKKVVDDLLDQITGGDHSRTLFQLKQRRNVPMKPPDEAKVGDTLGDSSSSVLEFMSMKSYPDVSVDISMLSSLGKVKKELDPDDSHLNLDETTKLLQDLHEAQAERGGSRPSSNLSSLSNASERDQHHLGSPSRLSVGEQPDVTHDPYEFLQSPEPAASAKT

MCF7 = experiment: Growth inhibition of human MCF7 cells after 72 hrs by CellTiter 96S AQeous non-radioactive cell proliferation assay; format: functional
SK-MEL-5 [2] = experiment: Growth inhibition of human SK-MEL-5 cells after 72 hrs by CellTiter 96S AQeous non-radioactive cell proliferation assay; format: functional
HL-60 = experiment: Growth inhibition of human HL60 cells after 72 hrs by CellTiter 96S AQeous non-radioactive cell proliferation assay; format: functional
[3] = molecular target: T2, Bromodomain-containing protein 4 (Homo sapiens, UniProt O60885); experiment: Binding affinity to BRD4 BD1 (unknown origin) at 25 degree C by ITC analysis
UACC-62 = experiment: Growth inhibition of human UACC-62 cells after 72 hrs by CellTiter 96S AQeous non-radioactive cell proliferation assay; format: functional
NCI-H522 = experiment: Growth inhibition of human NCI-H522 cells after 72 hrs by CellTiter 96S AQeous non-radioactive cell proliferation assay; format: functional
SNB-75 = experiment: Growth inhibition of human SNB-75 cells after 72 hrs by CellTiter 96S AQeous non-radioactive cell proliferation assay; format: functional
LOX IMVI = experiment: Cytotoxicity against human LOX-IMVI cells after 72 hrs by CellTiter 96S AQeous non-radioactive cell proliferation assay; format: functional; conditions: read-out: LC50 (the source's name)
[4] = Cytotoxicity against human A498 cells after 72 hrs by CellTiter 96S AQeous non-radioactive cell proliferation assay; format: functional; conditions: read-out: LC50 (the source's name)
SK-MEL-5 [5] = experiment: Cytotoxicity against human SK-MEL-5 cells after 72 hrs by CellTiter 96S AQeous non-radioactive cell proliferation assay; format: functional; conditions: read-out: LC50 (the source's name)
[6] = molecular target: T2, Bromodomain-containing protein 4; experiment: Binding affinity to human BRD4 BD1 (N44 to E168 aa residues) at 10 uM by bromoKdELECT Discover assay
Homo sapiens [7] = species on record: Homo sapiens; experiment: Selectivity index, ratio of Kd for BRD7 (unknown origin) to BRD4 BD1 (unknown origin) by bromoKdELECT Discover assay
Homo sapiens [8] = species on record: Homo sapiens; experiment: Selectivity index, ratio of Kd for BRPF1B (unknown origin) to BRD4 BD1 (unknown origin) by bromoKdELECT Discover assay
Homo sapiens [9] = species on record: Homo sapiens; experiment: Selectivity index, ratio of Kd for BRD9 (unknown origin) to BRD4 BD1 (unknown origin) by bromoKdELECT Discover assay
[10] = molecular target: T2, Bromodomain-containing protein 4; experiment: Binding affinity to BRD4 BD1 (unknown origin) at 37 degree C by ITC analysis
[11] = molecular target: T2, Bromodomain-containing protein 4; experiment: Binding affinity to BRD4 BD1 (unknown origin) at 15 degree C by ITC analysis
[12] = molecular target: T2, Bromodomain-containing protein 4; experiment: Binding affinity to human BRD4 BD1 (N44 to E168 aa residues) by bromoKdELECT Discover assay

Row | Structure (SMILES) | GI50 (MCF7; Homo sapiens, MCF7) | GI50 (SK-MEL-5 [2]; Homo sapiens, SK-MEL-5) | GI50 (HL-60; Homo sapiens, HL-60) | Kd [3] | also measured
1 | CCC(=O)N1CCOc2c(cc(-c3ccc(OC)c(OC)c3)cc2OC[C@H]2CCCN(C)C2)C1 | > 50 µM | > 50 µM | > 50 µM |  | Kd [1]: Not Active
2 | COc1ccc(S(=O)(=O)N2CC3(COC3)C2)cc1NC(=O)c1[nH]c(C)c2c1CCCCC2=O | 5.76 µM | 20.8 µM | 0.821 µM | 0.26 µM | 
3 | COc1ccc(S(=O)(=O)N2CCN(C)CC2)cc1NC(=O)c1[nH]c(C)c2c1CCCCC2=O | > 25 µM | > 20 µM | 2.08 µM | 0.42 µM | 
4 | CCN(CC)S(=O)(=O)c1ccc(OC)c(NC(=O)c2[nH]c(C)c3c2CCCCC3=O)c1 | 6.84 µM | 16.3 µM | 1.36 µM | 0.14 µM | 
5 | CCc1c(C(=O)Nc2cc(S(=O)(=O)N(CC)CC)ccc2O)[nH]c(C)c1C(C)=O |  |  | 17 µM |  | 
6 | COc1ccc(S(=O)(=O)N2CCCCC2)cc1NC(=O)c1[nH]c(C)c2c1CCCCC2=O | 4.06 µM | 6.79 µM | 0.491 µM | 0.05 µM | GI50 (UACC-62): 0.355 µM; GI50 (NCI-H522): 0.372 µM; GI50 (SNB-75): 0.141 µM; CC50 (LOX IMVI): 8.17 µM; CC50 [4]: 19.7 µM; CC50 (SK-MEL-5 [5]): 12.2 µM
7 | CC(=O)c1cc(-c2cc(C(=O)NC3CC3)ccc2C)c2ncccn12 | 4.49 µM | 2.77 µM | 1.33 µM |  | Kd [1]: Not Active
8 | COc1ccc(S(=O)(=O)N2CCCCC2)cc1NC(=O)c1c2c(c(C)n1C)C(=O)CCCC2 | > 10 µM | > 10 µM | > 10 µM |  | Activity [6]: inactive
9 | Cc1sc2c(c1C)C(c1ccc(Cl)cc1)=N[C@@H](CC(=O)OC(C)(C)C)c1nnc(C)n1-2 |  |  |  |  | GI50 (MCF7): > 50 µM; GI50 (SK-MEL-5 [2]): > 40 µM; GI50 (HL-60): 0.021 µM
10 | COc1ccc(S(=O)(=O)N2CCOCC2)cc1NC(=O)c1[nH]c(C)c2c1CCCCC2=O | 7.67 µM | 6.8 µM | 0.17 µM | 0.08 µM | Ratio (Homo sapiens [7]): 1.4; Ratio (Homo sapiens [8]): 8.7; Ratio (Homo sapiens [9]): 1.1
11 | Cc1cc(=O)n(C)c2cc(N3C(=O)CC[C@H](NS(=O)(=O)CC(C)C)[C@H]3c3ccc(Cl)cc3)ccc12 |  |  | 5.03 µM |  | 
12 | CCN(CC)S(=O)(=O)c1ccc(O)c(NC(=O)c2[nH]c(C)c3c2CCCCC3=O)c1 | > 40 µM | > 80 µM | > 40 µM | 0.07 µM | Kd [10]: 0.17 µM; Kd [11]: < 0.01 µM
13 | COc1ccc(S(=O)(=O)N2CCCCCC2)cc1NC(=O)c1[nH]c(C)c2c1CCCCC2=O | 3 µM | 6.85 µM | 0.565 µM | 0.18 µM | 
14 | CCc1c(C(=O)NCc2c(O)ccc3cccc(O)c23)[nH]c(C)c1C(C)=O | 4.2 µM | 4.2 µM | 1.3 µM |  | Kd ([1]; read-out: Kd): 2.9 µM; Kd [12]: > 4 µM
